According to US11192899B2 (MERCK PATENT GMBH, priority 2017, dated 2021):
Like-named read-outs stand apart in the source and are kept apart here.

What was measured:
Type in all cases: cell-based
human A1 receptor = target: T1, human A1 receptor (Homo sapiens, UniProt P30542); experiment: cAMP HTRF functional assay, recombinant CHO cells expressing human A1 receptor, forskolin and agonist CPA
T1 construct: expressed in transfected cells; host or cells: CHO
T1 sequence (P30542 1-326): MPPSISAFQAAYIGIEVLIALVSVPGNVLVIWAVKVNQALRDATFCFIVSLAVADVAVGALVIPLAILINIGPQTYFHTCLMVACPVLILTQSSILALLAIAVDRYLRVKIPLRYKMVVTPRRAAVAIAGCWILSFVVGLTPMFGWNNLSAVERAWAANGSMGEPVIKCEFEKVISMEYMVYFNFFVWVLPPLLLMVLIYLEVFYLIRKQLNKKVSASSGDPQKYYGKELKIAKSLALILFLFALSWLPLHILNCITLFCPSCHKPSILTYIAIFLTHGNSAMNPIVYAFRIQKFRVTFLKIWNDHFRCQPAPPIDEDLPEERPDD
Experimental: (§1) The functional activities of human A2A, A2B, A1 and A3 receptors were determined by quantification of cAMP, being the second messenger for adenosine receptors.
For human A1 and A3 receptors, recombinant CHO cells, expressing either A1 or A3-receptor, were used. As both receptors couple to Gi proteins, the assay protocol was adapted:
Cells were seeded into 384-well plates, forskolin, test compounds and agonists (CPA for A1- and IB-MECA for A3-receptor) were added. After 30 min incubation, HTRF reagents (cAMP dynamic 2, Cis Bio) were added and the cellular cAMP levels were determined using the ENVISION (Perkin Elmer) plate reader.
(§2) Obtained raw data were normalized against the inhibitor control and the neural control (DMSO) and the normalized data were fitted using GeneData software.

human A2A receptor = target: T2, human A2A receptor (Homo sapiens, UniProt P29274); experiment: cAMP HTRF functional assay, recombinant HEK293 cells expressing human A2A receptor, agonist NECA
T2 construct: expressed in transfected cells; host or cells: HEK293
T2 sequence (P29274 whole entry): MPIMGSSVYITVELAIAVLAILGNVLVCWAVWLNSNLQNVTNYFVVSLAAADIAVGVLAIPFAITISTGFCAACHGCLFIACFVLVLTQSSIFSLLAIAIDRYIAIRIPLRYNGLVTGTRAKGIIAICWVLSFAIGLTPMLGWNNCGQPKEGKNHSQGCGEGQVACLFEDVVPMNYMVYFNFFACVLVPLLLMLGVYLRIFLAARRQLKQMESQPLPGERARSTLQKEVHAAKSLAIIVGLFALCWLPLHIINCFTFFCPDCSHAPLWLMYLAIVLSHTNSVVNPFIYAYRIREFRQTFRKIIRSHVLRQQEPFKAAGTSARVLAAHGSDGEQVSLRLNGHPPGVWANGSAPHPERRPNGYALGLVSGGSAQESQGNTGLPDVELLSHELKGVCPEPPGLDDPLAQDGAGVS
Experimental: as §1, §2

A2B receptors = target: T3, A2B receptors (Homo sapiens, UniProt P29275); experiment: cAMP HTRF functional assay, recombinant HEK293 cells expressing human A2B receptor, agonist NECA; set-up: expressed in transfected cells; host or cells: HEK293
T3 sequence (P29275 1-332): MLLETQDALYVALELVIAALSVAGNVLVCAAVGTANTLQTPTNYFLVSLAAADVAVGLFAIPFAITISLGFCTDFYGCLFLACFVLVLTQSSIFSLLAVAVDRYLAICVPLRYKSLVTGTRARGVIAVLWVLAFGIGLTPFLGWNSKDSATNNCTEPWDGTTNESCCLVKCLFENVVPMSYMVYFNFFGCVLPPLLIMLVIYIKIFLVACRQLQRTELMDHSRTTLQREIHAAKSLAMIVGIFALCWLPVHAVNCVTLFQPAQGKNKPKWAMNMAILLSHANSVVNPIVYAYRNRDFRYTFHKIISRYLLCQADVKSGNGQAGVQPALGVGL
Experimental: as §1, §2

IC50 (human A1 receptor) [nM]	IC50 (human A2A receptor) [nM]	IC50 (A2B receptors) [nM]	Molecule	IC50 (human A2A receptor; recombinant HEK293 cells, cAMP, agonist NECA) [nM]
> 1000	< 100	–	COc1ccc(C2=CCOCC2)c2ncc(NC(=O)c3nnc(C)s3)nc12 [compound 146, N-[5-(3,6-dihydro-2H-pyran-4-yl)-8-methoxyquinoxalin-2-yl]-5-methyl-1,3,4-thiadiazole-2-carboxamide]	–
> 1000	< 100	–	COc1ccc(N2CCCOCC2)c2ncc(NC(=O)C3CC3)nc12 [compound 161, N-[8-methoxy-5-(1,4-oxazepan-4-yl)quinoxalin-2-yl]cyclopropanecarboxamide]	–
< 1000	< 100	< 100	COc1ccc(C2=CCOCC2)c2ncc(NC(=O)c3cnc[nH]3)nc12 [compound 159, N-[5-(3,6-dihydro-2H-pyran-4-yl)-8-methoxyquinoxalin-2-yl]-1H-imidazole-5-carboxamide]	–
> 1000	< 10	> 1000	COc1ccc(C2=CCOCC2)c2ncc(NC(=O)c3coc(CN)c3)nc12 [compound 142, 5-(aminomethyl)-N-[5-(3,6-dihydro-2H-pyran-4-yl)-8-methoxyquinoxalin-2-yl]furan-3-carboxamide]	–
> 1000	< 100	< 100	COc1ccc(-c2ccccc2)c2ncc(NC(=O)c3cnc[nH]3)nc12 [compound 160, N-(8-methoxy-5-phenylquinoxalin-2-yl)-1H-imidazole-5-carboxamide]	–
> 1000	< 100	–	COc1ccc(-c2cnn(C(F)F)c2)c2ncc(NC(=O)N3CCC(C)(O)CC3)nc12 [compound 158, N-{5-[1-(difluoromethyl)-1H-pyrazol-4-yl]-8-methoxyquinoxalin-2-yl}-4-hydroxy-4-methylpiperidine-1-carboxamide]	–
> 1000	< 100	–	COc1ccc(C2=CCOCC2)c2ncc(NC(=O)C3(C(=O)N(C)C)CC3)nc12 [compound 144, N′1-[5-(3,6-dihydro-2H-pyran-4-yl)-8-methoxyquinoxalin-2-yl]-N1,N1-dimethylcyclopropane-1,1-dicarboxamide]	–
> 1000	< 100	–	COc1ccc(C2=CCOCC2)c2ncc(NC(=O)C3(CN(C)C)CC3)nc12 [compound 145, N-[5-(3,6-dihydro-2H-pyran-4-yl)-8-methoxyquinoxalin-2-yl]-1-[(dimethylamino)methyl]cyclopropane-1-carboxamide]	–

The next lines start with the molecule.

Molecule	IC50 (human A1 receptor) [nM]	IC50 (human A2A receptor) [nM]	IC50 (A2B receptors) [nM]	IC50 (human A2A receptor; recombinant HEK293 cells, cAMP, agonist NECA) [nM]
COc1ccc(C2CCOCC2)c2ncc(NC(=O)N3CC4(C3)CS(=O)(=O)C4)nc12 [compound 18]	> 1000	< 100	–	–
COc1ccc(-c2cccc(F)c2)c2ncc(NC(=O)N3CCC(C)(O)CC3)nc12 [compound 62]	< 1000	< 100	> 1000	–
COc1ccc(-c2cccc(F)c2F)c2ncc(NC(=O)c3cnc(C)o3)nc12 [compound 125, N-[5-(2,3-difluorophenyl)-8-methoxyquinoxalin-2-yl]-2-methyl-1,3-oxazole-5-carboxamide]	< 1000	< 100	–	–
COc1ccc(C2=CCOCC2)c2ncc(NC(=O)c3cnc(C)o3)nc12 [compound 132, N-[5-(3,6-dihydro-2H-pyran-4-yl)-8-methoxyquinoxalin-2-yl]-2-methyl-1,3-oxazole-5-carboxamide]	< 1000	< 10	< 100	–
COCCOc1cccc(-c2ccc(OC)c3nc(NC(=O)N4CCC(C)(O)CC4)cnc23)c1 [compound 117, 4-hydroxy-N-{8-methoxy-5-[3-(2-methoxyethoxy)phenyl]quinoxalin-2-yl}-4-methylpiperidine-1-carboxamide]	> 1000	< 100	> 1000	–
COc1ncc(C2CCOCC2)c2ncc(NC(=O)N3CCC(C)(CO)CC3)nc12 [compound 104, 4-Hydroxymethyl-4-methyl-piperidine-1-carboxylic acid [5-methoxy-8-(tetrahydro-pyran-4-yl)-pyrido[3,4-b]pyrazin-3-yl]-amide]	–	< 10	–	–
COc1ccc(C2CCOCC2)c2ncc(NC(=O)c3cnc(C)s3)nc12 [compound 78]	> 1000	< 10	< 1000	–
COc1ccc(-c2cnn(C3CN(C(=O)OC(C)(C)C)C3)c2)c2ncc(NC(=O)N3CCC(C)(O)CC3)nc12 [compound 116, tert-butyl 3-(4-{2-[(4-hydroxy-4-methylpiperidine-1-carbonyl)amino]-8-methoxyquinoxalin-5-yl}-1H-pyrazol-1-yl)azetidine-1-carboxylate]	< 1000	< 100	> 1000	–
CCCCc1ccc(OC)c2nc(NC(=O)N3CCC(C)(O)CC3)cnc12 [compound 108, N-(5-butyl-8-methoxyquinoxalin-2-yl)-4-hydroxy-4-methylpiperidine-1-carboxamide]	> 1000	< 100	> 1000	–
COc1ccc(C2=CCOCC2)c2ncc(NC(=O)c3csc(N)n3)nc12 [compound 139, 2-amino-N-[5-(3,6-dihydro-2H-pyran-4-yl)-8-methoxyquinoxalin-2-yl]-1,3-thiazole-4-carboxamide]	> 1000	< 100	> 1000	–
CNC(=O)c1cc(-c2ccc(OC)c3nc(NC(=O)N4CCC(C)(O)CC4)cnc23)ccn1 [compound 115, 4-{2-[(4-hydroxy-4-methylpiperidine-1-carbonyl)amino]-8-methoxyquinoxalin-5-yl}-N-methylpyridine-2-carboxamide]	–	< 100	–	–
COc1ccc(C2=CCOCC2)c2ncc(NC(=O)c3cnn(C)c3)nc12 [compound 135, N-[5-(3,6-dihydro-2H-pyran-4-yl)-8-methoxyquinoxalin-2-yl]-1-methyl-1H-pyrazole-4-carboxamide]	< 100	< 10	< 100	–
COc1ccc(C2CCOCC2)c2ncc(NC(=O)c3cnc(C)o3)nc12 [compound 130, N-[8-methoxy-5-(oxan-4-yl)quinoxalin-2-yl]-2-methyl-1,3-oxazole-5-carboxamide]	> 1000	< 10	< 100	–
COc1ccc(-c2cnn(Cc3ccccn3)c2)c2ncc(NC(=O)N3CCC(C)(O)CC3)nc12 [compound 114, 4-hydroxy-N-(8-methoxy-5-{1-[(pyridin-2-yl)methyl]-1H-pyrazol-4-yl}quinoxalin-2-yl)-4-methylpiperidine-1-carboxamide]	< 1000	< 100	> 1000	–
C#CCC1(O)CCN(C(=O)Nc2cnc3c(C4CCOCC4)cnc(OC)c3n2)CC1 [compound 103, 4-Hydroxy-4-prop-2-ynyl-piperidine-1-carboxylic acid [5-methoxy-8-(tetrahydro-pyran-4-yl)-pyrido[3,4-b]pyrazin-3-yl]-amide]	> 1000	< 10	> 1000	–
COc1ccc(-c2ccccc2F)c2ncc(NC(=O)c3cnc(C)o3)nc12 [compound 129, N-[5-(2-fluorophenyl)-8-methoxyquinoxalin-2-yl]-2-methyl-1,3-oxazole-5-carboxamide]	–	< 10	< 100	–
4-Hydroxy-4-methyl-piperidine-1-carboxylic acid (5-methoxy-8-phenyl-pyrido[3,4-b]pyrazin-3-yl)-amide [compound 15]	–	–	–	< 100
COc1ccc(-c2cccnc2)c2nc(NC(=O)N3CCC(C)(O)CC3)cnc12 [compound 112, 4-hydroxy-N-[5-methoxy-8-(pyridin-3-yl)quinoxalin-2-yl]-4-methylpiperidine-1-carboxamide]	> 1000	< 100	–	–
